“And” between values parts separate entries of the source, which are not always exact repeats. Equal entries are not always repeated.
molecular target: SARS-CoV-2 Main Protease (SARS-CoV-2) (UniProt P0DTD1)

Row | Compound | IC50
1 | C=CC(=O)N(c1ccc(C(C)(C)C)cc1)[C@H](C(=O)NCCc1cccc(F)c1)c1cccnc1 (stereo in doubt) | 2.86 µM
2 | CS(=O)(=O)Nc1ccc(Cl)cc1C(=O)N1CCC(C2CCNC2)CC1 (stereo not drawn) | > 99.5 µM
3 | Cc1ccncc1NC(=O)Cc1cccc(-c2cn[nH]c2)c1 | 53.2 µM
4 | O=C(O)[C@@H](c1ccccc1)N1Cc2ccccc2C1=O (stereo in doubt) | 1.78 µM
5 | CC(C)(C)c1ccc(N(C(=O)c2cc(=O)[nH][nH]2)C(C(=O)NCCc2cccc(F)c2)c2cccnc2)cc1 (stereo not drawn) | 39.7 µM
6 | Cn1cnnc1-c1cccc(NS(=O)(=O)c2c(Cl)nc3sccn23)c1 | > 99.5 µM
7 | CC(=O)NCC1(C(=O)Nc2cncc3ccccc23)CCOc2ccc(Cl)cc21 (stereo not drawn) | 3.34 µM
8 | N#CC1(CS(=O)(=O)N2Cc3ccc(Cl)cc3C3(CCN(c4cncc5ccc(C(F)F)cc45)C3=O)C2)CC1 (stereo not drawn) | 0.354 µM
9 | CC(C)n1nccc1C(=O)N1Cc2ccc(Cl)cc2C2(CCN(c3cncc4ccccc34)C2=O)C1 (stereo not drawn) | 0.268 µM
10 | O=C(CN1Cc2ccc(Cl)cc2C(C(=O)Nc2cncc3ccccc23)C1)NC1CC1 (stereo not drawn) | 0.076 µM and 0.099 µM and 0.186 µM
11 | O=C(Nc1cccc(C(F)(F)F)c1)Nc1ccccc1Sc1ncc([N+](=O)[O-])s1 | 6.26 µM
12 | CCCNC(=O)CN1CC(C(=O)Nc2cncc3cc(S(C)(=O)=O)ccc23)c2cc(Cl)ccc2C1=O (stereo not drawn) | 0.127 µM and 0.209 µM
13 | CNC(=O)CN1CC2(CCN(c3cncc4ccccc34)C2=O)c2cc(Cl)ccc2S1(=O)=O (stereo not drawn) | 0.275 µM
14 | O=C(NCc1ccc2[nH]c(=O)[nH]c2c1)Nc1ccc(F)c(F)c1 | > 99.5 µM
15 | CN(C)C(=O)CN1CCN(c2cc(Cl)cc(CC(=O)Nc3cncc4ccccc34)c2)CC1 | 2.85 µM
16 | Cn1ncc(C(=O)N(c2ccc(C(C)(C)C)cc2)C(C(=O)NCCc2cccc(F)c2)c2cccnc2)n1 (stereo not drawn) | 17.6 µM
17 | Cc1ccccc1CN(C(=O)c1cocn1)C(C(=O)NCCc1cccc(F)c1)c1cccnc1 (stereo not drawn) | > 99.5 µM
18 | CC1(C)Nc2ccccc2C1NC(=O)Cc1cccc(Cl)c1 (stereo not drawn) | > 99.5 µM
19 | CS(=O)(=O)c1ccc(O)c(Nc2cc(Cl)cc(CC(=O)Nc3cncc4ccccc34)c2)c1 | 7.61 µM
20 | CCCCc1nc(-c2nccn2Cc2ccoc2)c[nH]1 | 14.3 µM
21 | C=CC(=O)NCC(=O)N(Cc1ccccc1)C[C@@]1(O)CN2CCC1CC2 (stereo in doubt) | > 99.5 µM
22 | CNC(=O)C1(N2Cc3ccc(Cl)cc3C3(CCN(c4cncc5ccc(OCCN(C)C)cc45)C3=O)C2)CC1 (stereo not drawn) | 0.614 µM
23 | Cc1noc(C)c1CCNC(=O)Nc1cn(CC(C)C)c(=O)c2ccccc12 | 27.7 µM
24 | CC1(CS(=O)(=O)N2Cc3ccc(Cl)cc3C3(CCN(c4cncc5cc(S(C)(=O)=O)ccc45)C3=O)C2)CC1 (stereo not drawn) | 0.155 µM
25 | O=C(NCCc1cccc(F)c1)C(c1cccnc1)N(C(=O)c1cocn1)[C@H]1C[C@H](Oc2ccccc2)C1 (stereo partly drawn) | > 99.5 µM

Row | Compound | IC50
26 | CN(C)S(=O)(=O)NCC1(C(=O)Nc2cncc3ccccc23)CCOc2ccc(Cl)cc21 (stereo not drawn) | 2.73 µM
27 | Cc1ccncc1NC(=O)Cc1cc(Cl)cc(OCc2nn(C(=O)OC(C)(C)C)c3ccccc23)c1 | > 99.5 µM
28 | Cc1ccncc1NC(=O)Cc1cc(Cl)cc(NS(N)(=O)=O)c1 | 11.3 µM
29 | CC(Cc1nc2ccccc2s1)Nc1ccc2nnnn2n1 (stereo not drawn) | > 99.5 µM
30 | Cc1ncc(CN2Cc3ccc(Cl)cc3C(C(=O)Nc3cncc4ccc(F)cc34)C2)[nH]1 (stereo not drawn) | 0.307 µM
31 | CC(NC(=O)Cc1ccc(-n2cnnn2)cc1)(C(=O)Nc1cncc2ccccc12)c1ccc(Cl)c(Cl)c1 (stereo not drawn) | 3.42 µM and 6.3 µM
32 | CCCCc1nc(-c2nccn2CC(F)(F)F)c[nH]1 | 23.1 µM
33 | CNC(=O)CN1CC(C(=O)Nc2cncc3cc(NS(C)(=O)=O)ccc23)c2cc(Cl)ccc2C1=O (stereo not drawn) | < 0.05 µM and 0.0442 µM
34 | NS(=O)(=O)C1Cc2ccccc2N(CCNS(=O)(=O)c2ccccc2)C1 (stereo not drawn) | > 99.5 µM
35 | COc1ccccc1C(=O)N(c1ccc(C(C)(C)C)cc1)C(C(=O)NCCc1cccc(F)c1)c1cccnc1 (stereo not drawn) | > 99.5 µM
36 | Cn1cncc1C(=O)N1Cc2ccc(Cl)cc2C(C(=O)Nc2cncc3ccccc23)C1 (stereo not drawn) | 0.224 µM
37 | O=C(CCl)N1CCN(Cc2ccsc2)CC1 | 3.27 µM and 3.74 µM
38 | Cc1sc2ncnc(N3CCc4c(ncn4C4CC4)C3)c2c1C | > 99.5 µM
39 | N#CC1(CS(=O)(=O)N2Cc3ccc(Cl)cc3C(C(=O)Nc3cncc4cc(Cl)ccc34)C2)CC1 (stereo not drawn) | 0.283 µM
40 | O=C1N(Cc2cccc(Cl)c2)CCN1c1nccc2n[nH]cc12 | 4.56 µM
41 | O=C(Cc1cc(Cl)cc(NC2CCN(Cc3ccccc3)CC2)c1)Nc1cncc2ccccc12 | 5.93 µM
42 | COC1(CS(=O)(=O)N2Cc3ccc(Cl)cc3C3(CCN(c4cncc5ccccc45)C3=O)C2)CC1 (stereo not drawn) | 0.356 µM
43 | N#Cc1ncn(CC(=O)Nc2ccc(Br)cc2Cl)n1 | 15.7 µM
44 | O=C(Cc1cc(Cl)cc(Nc2ccc(O)cc2[N+](=O)[O-])c1)Nc1cncc2ccccc12 | 5.33 µM
45 | C=CC(=O)N(c1ccc(C2(C)CC2)cc1)C(C(=O)Nc1cccc(CC)c1)c1cccnc1 (stereo not drawn) | > 99 µM
46 | CCCCc1nc(-c2nccn2CCc2ccccn2)c[nH]1 | 21.7 µM
47 | O=C(Cc1cc(Cl)ccc1Cl)Nc1cncc2ccccc12 | 1.02 µM
48 | CNC(=O)CN1Cc2ccc(Cl)cc2C2(CCN(c3cncc4ccc(OC)cc34)C2=O)C1 (stereo not drawn) | 0.153 µM
49 | CCS(=O)(=O)Nc1ccc2c(NC(=O)C3CN(S(=O)(=O)CC4(C#N)CC4)Cc4ccc(Cl)cc43)cncc2c1 (stereo not drawn) | < 0.05 µM
50 | C[C@H]1C[C@@H](C(=O)Nc2cncc3ccccc23)c2cc(Cl)ccc2O1 (stereo in doubt) | 20.1 µM

Row | Compound | IC50
51 | C1=C(c2c[nH]c3ccccc23)CCN(Cc2ccno2)C1 | > 99.5 µM
52 | Cc1c(Cl)cccc1S(=O)(=O)N(Cc1ccc(F)cc1)c1ccc2[nH]c(=O)[nH]c2c1 | > 99.5 µM
53 | O=C(Cc1cccc(Cl)c1)Nc1cncc2c1CCCN2 | 7.27 µM
54 | O=C(COCC1(C(=O)Nc2cncc3ccccc23)CCOc2ccc(Cl)cc21)Nc1ncc[nH]1 (stereo not drawn) | 1.99 µM
55 | O=C(C1CCOc2cc(Cl)ccc21)N(Cc1c[nH]c(=O)[nH]c1=O)c1cncc2ccccc12 (stereo not drawn) | 7.14 µM
56 | CCOC(=O)c1c(C)n(S(C)(=O)=O)c2ccc(N(C(=O)c3ccco3)S(C)(=O)=O)cc12 | 0.282 µM
57 | COc1ccc2c(NC(=O)Cc3cccc(Cl)c3)noc2c1 | > 99.5 µM
58 | CN(C)C(=O)COCC1(C(=O)Nc2cncc3ccccc23)CCOc2ccc(Cl)cc21 (stereo not drawn) | 0.652 µM
59 | Cn1ccc2cc(N(C(=O)c3cocn3)C(C(=O)NCCc3cccc(F)c3)c3cccnc3)ccc21 (stereo not drawn) | 23.8 µM
60 | COc1cc2nc(Cl)nc(Nc3cc(Cl)cc(CC(=O)Nc4cncc5ccccc45)c3)c2cc1OC | 2.36 µM
61 | CC(C(N)=O)c1cc(Cl)cc(CC(=O)Nc2cncc3ccccc23)c1 (stereo not drawn) | 2.62 µM
62 | Cc1ccc(N(Cc2cccc(Cl)c2)C(=O)Cn2nnc3ccccc32)cc1 | 2.33 µM
63 | O=C(Nc1cccnc1)N1CCC(CN2CCc3ccccc32)CC1 | > 99.5 µM
64 | COc1ccc2c(NC(=O)C3CCOc4ccc(Cl)cc43)noc2c1 (stereo not drawn) | 61.5 µM
65 | CC1CN(CCO)CCN1C(=O)CC1(C(=O)Nc2cncc3ccccc23)CCOc2ccc(Cl)cc21 (stereo not drawn) | 14.5 µM
66 | Cn1nc(C(C(=O)NCCc2cccc(F)c2)N(C(=O)c2ccco2)c2ccc(C(C)(C)C)cc2)c2ccccc21 (stereo not drawn) | > 99.5 µM
67 | CC(C)=CCC[C@@](C)(O)[C@H]1CC[C@]2(C)[C@@H]1[C@H](O)C[C@@H]1[C@@]3(C)CC[C@H](O[C@@H]4O[C@H](CO)[C@@H](O)[C@H](O)[C@H]4O)C(C)(C)[C@@H]3CC[C@]12C (stereo in doubt) | > 99.5 µM
68 | O=C(Nc1cncc2c1CCCC2)[C@@H]1CNS(=O)(=O)c2ccc(Cl)cc21 (stereo in doubt) | 0.205 µM
69 | COc1cccc(CCNc2cc(Cl)cc(CC(=O)Nc3cncc4ccccc34)c2)c1 | 3.16 µM
70 | Cn1c(=O)oc2cc(S(=O)(=O)Nc3ccc4ncccc4c3)ccc21 | > 99.5 µM
71 | O=C(Nc1nn2cnnc2s1)c1csc(-c2ccccc2)n1 | > 99.5 µM
72 | COc1cc(N(C(=O)c2cnc[nH]2)C(C(=O)NCCc2cccc(F)c2)c2cccnc2)ccc1S(=O)(=O)N(C)C (stereo not drawn) | > 99 µM
73 | CN(c1cc(Cl)cc(CC(=O)Nc2cncc3ccccc23)c1)C1CCN(C(=O)OC(C)(C)C)CC1 | 2.5 µM
74 | O=C(Nc1cncc2ccccc12)C1COCc2c(Cl)cccc21 (stereo not drawn) | 7.02 µM
75 | COc1ccc(N(Cc2cccc(Cl)c2)C(=O)Cn2nnc3ccccc32)cc1 | 1.14 µM

Row | Compound | IC50
76 | CCCc1cc2c(cc1S(=O)(=O)N1CCN(c3cccc(Cl)c3Cl)CC1)OCO2 | > 99.5 µM
77 | Cc1c(C(=O)N2CCC(C3CCNC3)CC2)cccc1-c1ccccn1 (stereo not drawn) | > 99.5 µM
78 | O=C(NCCc1cccc(F)c1)C(c1cccnc1)N(C(=O)c1cnc[nH]1)c1ccc(C2COC2)cc1 (stereo not drawn) | 22.7 µM
79 | O=C(Cc1cc(Cl)cc(Nc2ccc(F)c(F)c2Br)c1)Nc1cncc2ccccc12 | 1.94 µM
80 | CCN1CCN(c2ccc(Nc3cc(Cl)cc(CC(=O)Nc4cncc5ccccc45)c3)cc2)CC1 | 4.3 µM
81 | Cc1nc2ccc(NCc3cnc4ccccn34)cn2n1 | > 99.5 µM
82 | O=C(NCCc1cccc(F)c1)C(c1cccnc1)N(C(=O)c1ccco1)c1ccc(-c2n[nH]c3c2COCC3)cc1 (stereo not drawn) | 43 µM
83 | CN1Cc2ccc(Cl)cc2C(C(=O)Nc2cncc3ccccc23)C1 (stereo not drawn) | 2.01 µM
84 | CNC(=O)c1cc(Cl)cc(CC(=O)Nc2cnccc2C)c1 | 46.3 µM and 57.3 µM
85 | O=C(Cc1cc(Cl)cc(Nc2cccc(Br)n2)c1)Nc1cncc2ccccc12 | 1.92 µM
86 | COc1ccc(N(C(=O)c2cocn2)C(C(=O)NCCc2cccc(F)c2)c2cccnc2)cc1 (stereo not drawn) | 22.2 µM
87 | O=C(NCCc1cccc(F)c1)C(c1cccnc1)N(C(=O)c1cnc[nH]1)C1CCCC2(CCC2)C1 (stereo not drawn) | > 99 µM
88 | CS(=O)(=O)Nc1ccc2c(NC(=O)Cc3cccc(Cl)c3)cncc2c1 | 0.882 µM
89 | O=C(Cc1cccc(Cl)c1)Nc1n[nH]c2ccccc12 | > 99.5 µM
90 | O=C(Cc1ccc(Cl)c(Cl)c1)Nc1cncc2ccncc12 | 1.79 µM
91 | CC(CNC(=O)c1cnc2ccccn12)Nc1nc2ccccc2o1 (stereo not drawn) | > 99.5 µM
92 | Cc1ccncc1NC(=O)Cc1cc(Cl)cc(NC2CCCC2O)c1 (stereo not drawn) | 19.7 µM
93 | O=C(Cc1cc(Cl)cc(Nc2nnc(Cl)cc2Br)c1)Nc1cncc2ccccc12 | 1.81 µM
94 | CC1(CS(=O)(=O)N2Cc3ccc(Cl)cc3C(C(=O)Nc3cncc4cccc(Cl)c34)C2)CS(=O)(=O)C1 (stereo not drawn) | 0.957 µM
95 | N#Cc1nccc(Cl)n1 | > 99.5 µM
96 | O=C(Cc1cccc(Cl)c1)Nc1cnccc1C(=O)O | > 99.5 µM
97 | O=C(CN1CC(C(=O)Nc2cncc3cc(F)ccc23)c2cc(Cl)ccc2C1=O)NC1CCC1 (stereo not drawn) | 0.34 µM
98 | Cn1ncc2c(=O)[nH]c(NNC(=O)c3cccn4nccc34)nc21 | > 99.5 µM

From the COVID Moonshot data (paper PMC7615835)
